Source: patent EP2604596A1, “Polymorphs of imatinib” (priority 2011, dated 2013)

Experiment: Non-hygroscopicity test (storage in stability chambers, water content)
Type: physicochemical
Conditions: mesylate; for Water Content after 3 months (%): 40°C at humidity of 75%, for 3 months; for Initial Water Content (%): before storage
Procedure: In the present invention, samples of obtained crystalline forms are stored […] in stability chambers under following conditions of 40°C and humidity of 75%, for 3 months to support non-hygroscopic nature of novel forms of imatinib mesylate.
Non-hygroscopicity test results are listed below in table 1.

Row | Water Content after 3 months (%) | Initial Water Content (%) | SMILES
1 | 0.48% | 0.37% | CS(=O)(=O)O.Cc1ccc(NC(=O)c2ccc(CN3CCN(C)CC3)cc2)cc1Nc1nccc(-c2cccnc2)n1 [Polymorph B sample, 4-[(4-Methyl-1-piperazinyl)methyl]-N-[4-methyl-3-[[4-(3-pyridinyl)-2-pyrimidinyl]amino]phenyl]-benzamide mesylate]
2 | 0.48% | 0.38% | CS(=O)(=O)O.Cc1ccc(NC(=O)c2ccc(CN3CCN(C)CC3)cc2)cc1Nc1nccc(-c2cccnc2)n1 [Polymorph M sample, 4-[(4-Methyl-1-piperazinyl)methyl]-N-[4-methyl-3-[[4-(3-pyridinyl)-2-pyrimidinyl]amino]phenyl]-benzamide mesylate]
3 | 0.50% | 0.42% | CS(=O)(=O)O.Cc1ccc(NC(=O)c2ccc(CN3CCN(C)CC3)cc2)cc1Nc1nccc(-c2cccnc2)n1 [Polymorph P sample, 4-[(4-Methyl-1-piperazinyl)methyl]-N-[4-methyl-3-[[4-(3-pyridinyl)-2-pyrimidinyl]amino]phenyl]-benzamide mesylate]
4 | 0.50% | 0.40% | CS(=O)(=O)O.Cc1ccc(NC(=O)c2ccc(CN3CCN(C)CC3)cc2)cc1Nc1nccc(-c2cccnc2)n1 [Polymorph Y sample, 4-[(4-Methyl-1-piperazinyl)methyl]-N-[4-methyl-3-[[4-(3-pyridinyl)-2-pyrimidinyl]amino]phenyl]-benzamide mesylate]
5 | 0.60% | 0.34% | CS(=O)(=O)O.Cc1ccc(NC(=O)c2ccc(CN3CCN(C)CC3)cc2)cc1Nc1nccc(-c2cccnc2)n1 [Polymorph β reference sample, 4-[(4-Methyl-1-piperazinyl)methyl]-N-[4-methyl-3-[[4-(3-pyridinyl)-2-pyrimidinyl]amino]phenyl]-benzamide mesylate, reference compound]
